Laboratory results from US9932300B2, “N,N′-diarylurea compounds and N,N′-diarylthiourea compounds as inhibitors of translation initiation” (President and Fellows of Harvard College, priority 2009, dated 2018).

System: eIF2-GTP-Met-tRNAi ternary complex
Assay: Ternary complex assay (dual luciferase, firefly/renilla ratio) in stable KLN-tTA/pBISA-DL(ATF-4) cells; HTS and hit confirmation
Type: cell-based, mouse
Parameters: Activity 10 uM / Activity 2.5 uM / Activity 5 uM: unit not given here
Conditions: confirmed hits of the screen (Table 5); for Activity 2.5 uM: compound at 2.5 uM; for Activity 10 uM: compound at 10 uM; for Activity 5 uM: compound at 5 uM

SMILES | Activity 2.5 uM | Activity 10 uM | Activity 5 uM
Cc1cc[c]([Sn]([I])([O]C2(C=O)CCCCCC2)[c]2ccc(C)cc2)cc1 [Compound 671442] | 9.59 | 7.03 | –
Cn1c2ccccc2c2nnc(N/N=C/c3ccccn3)nc21 [Compound 370589] | 11.87 | 39.54 | –
O=C1C=CC(=Nc2ccc3c(c2)Cc2cc(Br)ccc2-3)O1 [Compound 408380] | 2.28 | 4.36 | –
Cc1cc(C)c(C(=O)Oc2ccc3ccccc3c2)c(C)c1 [Compound 157507] | 2.07 | 3.33 | –
c1ccc(-c2cc3ccccc3[nH]2)nc1 [Compound 112668] | – | 3.3905 | 2.854
COc1ccc2c3c(ccc2c1)[C@@H]1C/C(=C(\OC(C)=O)C(F)(F)F)C(=O)[C@@]1(C)CC3 [Compound 45226] | 3.03 | 7.27 | –
CCCC[CH2][Sn]([CH2]CCCC)[CH2]CCCC.CCCC[CH2][Sn]([CH2]CCCC)[CH2]CCCC [Compound 202674] | 4.67 | – | –
CC1=NN(c2ccccc2)C(=O)C1=C1SCCCS1 [Compound 643762] | 1.99 | 3.47 | –
Cn1ccnc1SC(F)(F)c1nc2ccccc2o1 [Compound 691258] | – | 3.904 | 3.891
O=C1/C(=C/c2ccc(O)c(O)c2)CCC/C1=C\c1ccc(O)c(O)c1 [Compound 652890] | 2.23 | 7.57 | –
C=[CH][Sn]([CH]=C)([S]c1cccc2cccnc12)[S]c1cccc2cccnc12 [Compound 628594] | 3.94 | – | –
CC1=CC(=O)C(C(C)C)=CC1=Nc1ccc(N(C)C)cc1 [Compound 39901] | 1.41 | 4.1 | –
Cc1ccc2occ/c(=N\Nc3ccccc3)c2c1 [Compound 601994] | 3.42 | 5.21 | –
O=C(c1ccccc1)c1coc(-c2ccccc2)c1 [Compound 100239] | – | 7.6705 | 6.748
Cl.S=C(N/N=C/c1ccccn1)N/N=C/c1ccccn1 [Compound 146007] | – | 3.4 | 1.8
CC(C)(C)C1CCC(NC(=O)C(Cl)Cl)CC1.CC(C)(C)C1CCC(NC(=O)C(Cl)Cl)CC1 (stereo not shown) [Compound 173000] | 0.61 | 3.68 | –
CCn1c(O)c(C=Nc2ccccc2)s/c1=N/Nc1nc(C)cs1 [Compound 658916] | 2.047 | 3.18 | –
COc1ccc2c(c1)CCc1c(CO)c(COC(=O)NC(C)C)n(C)c1-2 [Compound 627459] | 1.68 | 7.21 | –
Cc1cc2c(C(C)C)c(O)c(O)c(C=Nc3ccccc3[N+](=O)[O-])c2c(O)c1-c1c(C)cc2c(C(C)C)c(O)c(O)c(C=Nc3ccccc3[N+](=O)[O-])c2c1O [Compound 408711] | 1.47 | 21.88 | –
FC(F)(F)c1cccc(-c2nc3nc(Cl)c(Cl)nc3[nH]2)c1 [Compound 177407] | – | 21.876 | 16.53

SMILES | Activity 2.5 uM | Activity 10 uM | Activity 5 uM
CCOC(=O)CN1N=C([P+](c2ccccc2)(c2ccccc2)c2ccccc2)CC1(c1ccccc1)c1ccccc1.[Br-] [Compound 135745] | – | 6.5 | 3.2
CCCCCCCCCCCCCCCCCC[N+](C)(C)C.Cc1ccc(S(=O)(=O)[O-])cc1 [Compound 74566] | – | 3.7 | 1.7
CN(C)c1ccc(C(C[N+](=O)[O-])(c2ccc(N(C)C)cc2)c2ccc(N(C)C)cc2)cc1 [Compound 156572] | – | 7.9345 | 7.884
O=C(O)Cc1ccc(O)c(O)c1.[Pt].c1ccc([PH+](c2ccccc2)c2ccccc2)cc1.c1ccc([PH+](c2ccccc2)c2ccccc2)cc1 [Compound 377376] | 0.96 | 5.14 | –
COC1/C=C/OC2(C)Oc3c(C)c(O)c4c(O)c(c(C=NN5CCCCCCCC5)c(O)c4c3C2=O)NC(=O)/C(C)=C/C=C/C(C)C(O)C(C)C(O)C(C)C(OC(C)=O)C1C (stereo not shown) [Compound 172656] | – | 3.9 | 1.6
O=[N+]([O-])[O-].O=[N+]([O-])[O-].[Au].[Au].c1ccc([P-]c2ccccc2)cc1.c1ccc([P-]c2ccccc2)cc1 [Compound 652594] | 1.46 | 14.89 | –
CSC(=Nc1nc2ccc([N+](=O)[O-])cc2s1)SC [Compound 327371] | – | 22.247 | 13.29
CC1=CC(=Nc2ccc(N(C)C)cc2)C=CC1=O [Compound 401162] | 0.3784 | 7.084 | –
CC(=Nc1ccc(F)cc1)C1C(=O)c2ccccc2C1=O [Compound 343386] | – | 5.4775 | 4.235
Cl.NC[CH2][Sn]([c]1ccccc1)([CH]1CCCCC1)[CH]1CCCCC1 [Compound 604861] | 0.8 | 4.82 | –
Clc1ccc(-c2cc(C3CO3)c3cc(Cl)cc(Cl)c3n2)cc1 (stereo not shown) [Compound 112369] | – | 3.1 | 1.4
CCN(CC)C1=C/CC/C(c2ccccc2)=N/N=C\1c1ccccc1 [Compound 601076] | 2.48 | 3.17 | –
S=C1CC(c2ccccc2)Sc2ccccc2N1 (stereo not shown) [Compound 667463] | 3.13 | 3.45 | –
CCC[CH2][Sn]([C]#[C][Sn]([CH2]CCC)([CH2]CCC)[CH2]CCC)([CH2]CCC)[CH2]CCC [Compound 203205] | 3.12 | – | –
Cc1ccc(/C=C/c2ccc([N+](=O)[O-])cc2)cc1 [Compound 338462] | – | 6.4125 | 4.54
COc1cc[c]([Hg][n+]2c[nH]c3[nH]cnc(=S)c32)cc1 [Compound 631943] | 6.31 | – | –
COc1ccc(-c2nnc(-c3nsc4ccccc34)o2)cc1 [Compound 652917] | 2.33 | 3.31 | –
CCCCCCCCCCCCCCCCCC[S+](C)CC.[I-] (stereo not shown) [Compound 97372] | 1.62 | 4.98 | –
O=C1C=CC(=O)c2c1ccc1c3ccccc3n(-c3cccc([N+](=O)[O-])c3)c21 [Compound 661223] | 1.05 | 11.8 | –
FC(F)(F)c1cc(NC2=NCCN=C(Nc3cc(C(F)(F)F)cc(C(F)(F)F)c3)SS2)cc(C(F)(F)F)c1 [Compound 309898] | 1.07 | 13.68 | –

SMILES | Activity 2.5 uM | Activity 10 uM | Activity 5 uM
CCCCC(OC(=O)c1ccccc1)c1cc(OC(=O)c2ccccc2)c2c(c1OC(=O)c1ccccc1)CC(C)=C(C)C2 (stereo not shown) [Compound 287407] | 3.93 | 36.2 | –
CCO[C@@H]([CH2][Hg][Cl])[C@](C)([CH2][Hg][Cl])OCC [Compound 21293] | 3.16 | – | –
[Ru].[SH+]=C([SH2+])N1CCCCC1.[SH+]=C([SH2+])N1CCCCC1 [Compound 662875] | 10.55 | 40.72 | –
CN(C)c1ccc(C2(Cl)c3ccccc3N(Cc3ccccc3)c3ccccc32)cc1.Cl [Compound 21533] | 2.03 | 8.88 | –
CCC[CH2][Sn]([CH2]CCC)([CH2]CCC)[n]1ccnc1 [Compound 179739] | 0.98 | 3.62 | –
C/C(=N/NC(=S)Nc1ccccc1C)c1ccccn1 [Compound 668332] | 27.24 | 63.38 | –
COc1ccc(/C=N/Nc2nc(-c3cc4oc(=O)n(C)c4cc3Cl)cs2)cc1OC [Compound 632134] | 1.26 | 3.5 | –
C=C(CN1CCCC1)C(=O)c1ccc(OC)cc1.Cl [Compound 603554] | 0.35 | 8.45 | –
C[n+]1[se]nc2ccccc21.Cc1ccc(S(=O)(=O)[O-])cc1 [Compound 620852] | 4.79 | 16.94 | –
Cc1ccc2c(c1)SCc1c-2[nH]c2ccccc12 [Compound 150787] | 2.94 | 5.6 | –
CC(C)NCC(O)c1ccc(O)c(O)c1.[Pt].c1ccc([PH+](c2ccccc2)c2ccccc2)cc1.c1ccc([PH+](c2ccccc2)c2ccccc2)cc1 [Compound 377378] | 0.87 | 21.49 | –
CCCN(CCC)N=Nc1c(-c2ccccc2)n[nH]c1-c1ccccc1 [Compound 136886] | – | 28.5 | 2.5
Cc1ccc(O)c(-n2nc3ccccc3n2)c1 [Compound 91885] | – | 4.473 | 3.742
O=C(OC1CC2CC1C1CC3OC3C21)c1ccccc1 (stereo not shown) [Compound 94585] | – | 3.525 | 3.148
c1ccc2c(c1)cnc1c3ccccc3nn21 [Compound 292587] | – | 3.294 | 2.577
CCCCN(CCCC)CCC(O)(c1ccc(OC)c2ccccc12)C(O)(CCN(CCCC)CCCC)c1ccc(OC)c2ccccc12.Cl (stereo not shown) [Compound 26101] | 0.78 | 4.13 | –
Cc1cc(C(O)(c2ccc(N)cc2)c2ccc(N)cc2)ccc1N.Nc1ccc(C(O)(c2ccc(N)cc2)c2ccc(N)cc2)cc1 [Compound 56345] | – | 3.64 | 3.4
O=c1n(-c2ccc(Cl)c(Cl)c2)c(=O)n(-c2ccc(Cl)c(Cl)c2)c(=O)n1-c1ccc(Cl)c(Cl)c1 [Compound 664259] | 2.76 | 4.24 | –
COC(=O)C1CCC(/C(C#N)=C2/CCC(C(=O)OC)[N-]2)=N1.COC(=O)C1CCC(/C(C#N)=C2/CCC(C(=O)OC)[N-]2)=N1.[Cu+2] (stereo not shown) [Compound 617738] | 1.05 | 7.65 | –
CC(C)(C)C1=CC(=CC=C2C=CN(CCCCCCCCCCCO)C=C2)C=C(C(C)(C)C)C1=O [Compound 603854] | 0.93 | 4.19 | –
